Converted amounts (≈) assume the structure as drawn. “Also recorded” adds a separate entry of the source. Read-outs that look alike come from different tables or passages of the source.
What was measured:
[1] = Aqueous and phase solubility of voriconazole with SAE-CD; format: physicochemical
[2] = Aerodynamic droplet size characterization, AERONEB Pro nebulizer and eight-stage cascade impactor; format: physicochemical
Method: The performance of an inhalable formulation of the invention was evaluated using an AERONEB® Pro nebulizer and a cascade impactor. Aerodynamic droplet size distributions were determined using an adapted USP Apparatus 1 nonviable eight-stage cascade impactor (Thermo-Anderson, Smyrna, Ga.) with a spacer.
Aerodynamic droplet size distributions were determined using a USP Apparatus 1 nonviable eight-stage cascade impactor (Thermo-Anderson, Symrna, Ga.) to quantify total emitted dose (TED) from the nebulizer output, mass median aerodynamic diameter (MMAD), geometric standard deviation (GSD), and percentage droplets with an aerodynamic diameter less than 4.7 micrometer (defined as the percentage fine particle fraction or FPF). The aerodynamic droplet size distribution was conducted as adapted from the guidelines described in USP 30 Section 601: Aerosols, Nasal Sprays, Metered-dose Inhalers, and Dry Powder Inhalers.

[3] = tested on: Aspergillus fumigatus clinical isolate 293 (AF 293); assay: Survival of A. fumigatus-infected immunosuppressed mice (Kaplan-Meier); format: in vivo; conditions: for Percent Survival / Median Survival: A. fumigatus-infected female ICR mice, VOR inhalation BID 30-40 mg/kg, AmB intraperitoneal QD 1 mg/kg; for Percent Survival: to Day +12
Text: Conidia were harvested from Aspergillus fumigatus clinical isolate 293 (AF 293) cultures grown on potato dextrose agar (Hardy Diagnostics, Santa Maria, Calif.) by washing and scraping agar surfaces with 0.1% Tween 80 in sterile physiological saline and filtering through sterile glass wool. Conidia were re-suspended to achieve a final inoculum of ˜1×10^9 conidia/mL, as confirmed by hemocytometer counts and serial plating.
Mice were rendered immunosuppressed by intraperitoneal cyclophosphamide (250 mg/kg) and subcutaneous cortisone acetate (250 mg/kg) two days prior to inoculation (Day −2). Both cyclophosphamide (200 mg/kg intraperitoneal) and cortisone acetate (250 mg/kg subcutaneously) were re-administered on Day +3 following inoculation. Mice also received prophylactic antibiotic therapy of ceftazidime 50 mg/kg administered sub-cutaneously on Day −2 through Day +7.
To simulate pulmonary pathogenesis, mice were placed inside an acrylic chamber, and A. fumigatus conidia were introduced by aerosolizing the conidial suspension with a small particle nebulizer (Hudson Micro Mist, Hudson RCI, Temecula, Calif.) driven by compressed air. A standard exposure time of 1 hour was used to allow for complete aerosolization of the conidial suspension. Starting inocula were assessed by colony forming unit (CFU) enumeration from mice one hour post-inoculation.
The inhaled control group received 20 minute nebulizations of 100 mg/mL CAPTISOL® solutions BID beginning on Day −2 and continuing through Day +7. The intraperitoneal AmB group received 1 mg/kg Amphotericin B deoxycholate (Apothecon, Princeton, N.J.) by intraperitoneal injection (IP) once daily (QD) on Day +1 and continuing through Day +7 (FIG. 2).
Statistical analyses were conducted as follows. Survival was plotted by Kaplan-Meier analysis, and differences in median survival and percent survival between prophylaxis groups were analyzed by the log-rank test and chi-square test, respectively, using Prism version 4 software (GraphPad, San Diego, Calif.). […] A p-value of ≦0.05 was considered statistically significant for all comparisons.

[4] = tested on: Aspergillus fumigatus; assay: Pulmonary fungal burden by colony forming units in infected mice; format: in vivo
Method: Mice were monitored for an additional 5 days following discontinuation of treatment. Animals that appeared moribund prior to the end of the study were euthanized by halothane and death was recorded as occurring the next day. 12 mice were randomly selected from each group and euthanized on Day +8 for fungal burden analysis while any remaining mice were euthanized on Day +12. 2 additional mice were randomly selected from each group and euthanized on Day +8 and Day +12 for histological analysis
Lungs were homogenized in sterile saline (total volume 2 mL) supplemented with gentamicin and chloramphenicol using a tissue homogenizer (Polytron Dispensing and Mixing Technology PT 2100, Kinematica, Cincinnati, Ohio). Serial dilutions were prepared in sterile saline and plated in duplicate onto potato dextrose agar. Following 24 hours of incubation at 37° C., colonies were enumerated and colony forming units (CFU) per gram of lung tissue for each animal were calculated.
Statistical analyses were conducted as follows. Survival was plotted by Kaplan-Meier analysis, and differences in median survival and percent survival between prophylaxis groups were analyzed by the log-rank test and chi-square test, respectively, using Prism version 4 software (GraphPad, San Diego, Calif.). Differences in fungal burden endpoints (CFU/g and CE) were assessed for significance by analysis of variance with Tukey's post-test for multiple comparisons. A p-value of ≦0.05 was considered statistically significant for all comparisons.

[5] = tested on: A. fumigatus; assay: Lung histopathology, pulmonary lesion counts in A. fumigatus-infected mice; format: in vivo, Aspergillus fumigatus
Method: Histopathological changes in lung tissue were evaluated and compared for four mice in each of the inhaled voriconazole, inhaled control, and intraperitoneal AmB groups. The inhaled control was aerosolized CAPTISOL® at a concentration of 100 mg/mL over 20 minutes. On day 8 post inoculation, animals were euthanized using halothane and 10% volume/volume formaldehyde was instilled into the lungs via the trachea. Lungs were then harvested and placed into 10% volume/volume formaldehyde. Tissue was fixed in formaldehyde for an adequate period of time followed by processing and embedding into paraffin wax. Coronal sections of the entire lung were obtained at a thickness of 4-6 μm and mounted on slides. Sections were stained with hematoxylin and eosin and viewed by light microscopy with a Zeiss AxioVision Imager at 10× magnification. Two investigators were blinded and independently evaluated each lung section. The extent of lung damage caused by invasive hyphae was recorded and quantified by counting and normalizing the number of gross lesions.
Normalization of the histopathology results was achieved by using the number of lung pieces (sections) on the slide as a denominator. The total number of lesions on the slide were counted and then divided by the number of pieces of tissue on that slide. This was done because the number of pieces of tissue per slide (again, all from the same cut of lung from the same animal) ranged from 4 to 9. For example, the normalized number of lesions would be 0.4 if 2 lesions were observed on a slide with 5 lung pieces. Similarly, the normalized value would be 0.14 if 1 lesion was observed on a slide with 7 lung pieces.

[6] = tested on: A. fumigatus; conditions: cited from earlier work
[7] = tested on: Aspergillus fumigatus; conditions: cited from earlier work
[8] = single dose of IV or oral voriconazole; cited from earlier work
[9] = Single-dose pharmacokinetics of inhaled voriconazole in mice; conditions: for AUC(0-t): AUC (0-6 hr) Plasma
Method: Initially, a single dose PK profile was performed on large mice with a 5 L/min flow rate through the dosing apparatus (see Table 2).
A subsequent PK study was then performed on smaller mice due to the mouse size constraints of the murine model of infection at a lower air flow rate of 1 L/min. Male ICR mice were exposed to a 20 minute nebulization period. […] Plasma was separated from whole blood collected to determine drug concentration (adapted from Pascual et al., Antimicrobial Agents and Chemotherapy, 2007, 51:1). Lungs were harvested and homogenized to determine drug concentration (adapted from Lutsar et al., Clinical Infectious Disease, 2003, 37:5).
Mice were dosed using a nose-only dosing apparatus as illustrated in FIGS. 1A-1B. VFEND® IV was reconstituted, diluted, and aerosolized as described previously. The airflow through the dosing apparatus was varied from 1-5 L/min (see Table 2). Sufficient solution was added to the medication reservoir to have residual volume remaining after 20 minutes. The nose-only dosing apparatus and nebulizer were disassembled between each dose, cleaned, dried, and reassembled.
Pharmacokinetic (PK) profiles were determined for high flow rate and low flow rate mice groups following a single 20 minute nebulization. Mice were ordered with masses of 32 g (high flow rate mice) and 20 g (low flow rate mice). Two or more mice were sacrificed by carbon dioxide narcosis at each time point (high flow rate mice—5, 10, 20, 30, 60, 90, 150, 240, 360, 720, and 1440 minutes or low flow rate mice—10, 30, 60, 240, 360, and 480 minutes). Whole blood was collected by cardiac puncture, stored in heparinized vials, and centrifuged to obtain plasma. Surgery was also performed on each mouse to extract the whole lungs which were then homogenized in 1 mL of normal saline. […] The trapezoidal rule was used to estimate the area under the curve (AUC) for each concentration versus time profile.
Briefly, sterile water for injection (SWFI) was added to lung tissue and homogenized using a rotor and stator high shear homogenizer. Proteins and other cellular components were precipitated following addition of 0.2M borate buffer (pH 9.0), ethyl acetate, and centrifugation. Supernatant was then extracted three times and liquid was evaporated under a gentle stream of nitrogen.
For lung tissue, SWFI was added to lung tissue and homogenized using a rotor and stator high shear homogenizer. […] Supernatant was then extracted three times and liquid was evaporated under a gentle stream of nitrogen.
Each sample was analyzed using a Waters Breeze liquid chromatograph (Waters Corporation, Milford Mass.) equipped with a heated (35° C.) JUPITER® C18 (150 mm×4.6 mm, 5 micrometer) with a Universal security guard (Widepore C18) guard column (Phenomenex, Torrance, Calif.). The sample volume was 50 microliter with a UV detection wavelength of 254 nm. The mobile phase consisted of a 50:50 mixture of 0.01 M sodium acetate buffer and methanol at 1 mL/min.
Male ICR mice were dosed using a nose-only dosing apparatus as illustrated in FIGS. 1A and 1B. The airflow through the dosing apparatus was varied from 1-5 L/min. VFEND® IV was reconstituted, diluted, and sufficient solution was added to the medication reservoir to have residual volume remaining after 20 minutes. The nose-only dosing apparatus and nebulizer were disassembled between each dose, cleaned, dried, and reassembled.
Single-dose pharmacokinetic profiles were determined in two groups of mice: a high flow-rate group (5 L/min air flow, 32 g average mass) and low flow-rate group (1 L/min, 20 g average mass). Two or more mice were sacrificed by carbon dioxide narcosis at each time point (high flow-rate: 5, 10, 20, 30, 60, 90, 150, 240, 360, 720, and 1440 minutes or low flow-rate mice: 10, 30, 60, 240, 360, and 480 minutes). Whole blood was collected by cardiac puncture into heparinized vials and centrifuged to obtain plasma.

[10] = normalized lesions, listed as VRC
[11] = Small Mice (low flow rate, 1 L/min), single dose

CC(c1ncncc1F)C(O)(Cn1cncn1)c1ccc(F)cc1F (stereo not drawn) [Voriconazole, 2-(2,4-difluorophenyl)-3-(5-fluoropyrimidin-4-yl)-1-(1H-1,2,4-triazol-1-yl)butan-2-ol]
solubility ([1]; water with SAE-CD, aqueous with cosolvent or surfactant or cyclodextrin, thermodynamic from solid, Voriconazole (mg/ml) at saturated solubility, SAE-CD 43.26 mg/ml (r4)): 3.34 mg/mL (≈ 9.56 mM)
solubility ([1]; water with SAE-CD, aqueous with cosolvent or surfactant or cyclodextrin, thermodynamic from solid, Voriconazole (mg/ml) at saturated solubility, SAE-CD 43.26 mg/ml as printed (r8)): 35.1 mg/mL (≈ 101 mM)
solubility ([1]; water with SAE-CD, aqueous with cosolvent or surfactant or cyclodextrin, thermodynamic from solid, Voriconazole (mg/ml) at saturated solubility, SAE-CD 108.15 mg/ml): 8.39 mg/mL (≈ 24 mM)
solubility ([1]; water with SAE-CD, aqueous with cosolvent or surfactant or cyclodextrin, thermodynamic from solid, Voriconazole (mg/ml) at saturated solubility, SAE-CD 216.3 mg/ml): 17.3 mg/mL (≈ 49.6 mM)
solubility ([1]; water with SAE-CD, aqueous with cosolvent or surfactant or cyclodextrin, thermodynamic from solid, Voriconazole (mg/ml) at saturated solubility, SAE-CD 324.45 mg/ml): 26.5 mg/mL (≈ 75.8 mM)
solubility ([1]; water, room temperature, absence of water soluble cyclodextrin derivative, read-out: aqueous solubility): 0.68 to 0.69 mg/mL (≈ 1.95 to 1.98 mM)
FPF (fine particle fraction) ([2]; Average Results of Test 1 and 2, 6.25 mg/mL): > 70%
estimated TED, based on measured residual volumes ([2]; all dosing during the survival study): 25.44 mg
Percent Survival [3]: 66.7%
Percent Survival ([3]; listed as voriconazole): Approximately 67%
Median Survival [3]: >12 days
Median Survival ([3]; listed as voriconazole): over 12 days
difference in survival versus negative control (inhaled Captisol) and positive control (intraperitoneal Amphotericin B) ([3]; Kaplan-Meier survival curves): statistically significant (p<0.05) difference in survival
A - Day 8 Fungal Burden Determined by CFU, Mean ([4]; Day +8): 4.26 log10 CFU
A - Day 8 Fungal Burden Determined by CFU, Median ([4]; Day +8): 4.21 log10 CFU
A - Day 8 Fungal Burden Determined by CFU, Range ([4]; Day +8): (3.62-4.68) log10 CFU
B - Fungal Burden Determined by CFU for All Mice, Mean ([4]; all samples, day 8 and day 12): 3.88 log10 CFU
B - Fungal Burden Determined by CFU for All Mice, Median ([4]; all samples, day 8 and day 12): 4.14 log10 CFU
B - Fungal Burden Determined by CFU for All Mice, Range ([4]; all samples, day 8 and day 12): (2.60-4.68) log10 CFU
reduction in fungal burden between the groups (CFUs per gram of lung mass and CEs by qPCR) ([4]; in vivo): no significant reduction in fungal burden
lung histopathology findings (in words) ([5]; A. fumigatus-infected mice, aerosolized voriconazole, intraperitoneal amphotericin B): fewer signs of invasive disease and markedly improved histological findings; also recorded: fewer signs of invasive disease and markedly improved histological results; also recorded: Invasive hyphae and tissue destruction characteristic of invasive pulmonary aspergillosis were not observed
pulmonary lesions normalized for the number of lung tissue pieces per slide, 25th Percentile ([5]; normalized lesions): 0.19
pulmonary lesions normalized for the number of lung tissue pieces per slide, 75th Percentile ([5]; normalized lesions): 0.51
pulmonary lesions normalized for the number of lung tissue pieces per slide, Maximum ([5]; normalized lesions): 0.55
pulmonary lesions normalized for the number of lung tissue pieces per slide, Mean ([5]; normalized lesions): 0.4
pulmonary lesions normalized for the number of lung tissue pieces per slide, Median ([5]; normalized lesions): 0.37
pulmonary lesions normalized for the number of lung tissue pieces per slide, Minimum ([5]; normalized lesions): 0.14
pulmonary lesions normalized for the number of lung tissue pieces per slide, 25th Percentile [5, 10]: 0.2
pulmonary lesions normalized for the number of lung tissue pieces per slide, 75th Percentile [5, 10]: 0.5
pulmonary lesions normalized for the number of lung tissue pieces per slide, Maximum [5, 10]: 0.6
pulmonary lesions normalized for the number of lung tissue pieces per slide, Median [5, 10]: 0.4
pulmonary lesions normalized for the number of lung tissue pieces per slide, Minimum [5, 10]: 0.1
pulmonary lesions in all available histological samples, 25th Percentile ([5]; number of lesions): 1.3
pulmonary lesions in all available histological samples, 75th Percentile ([5]; number of lesions): 4.3
pulmonary lesions in all available histological samples, Maximum ([5]; number of lesions): 5.0
pulmonary lesions in all available histological samples, Mean ([5]; number of lesions): 2.5
pulmonary lesions in all available histological samples, Median ([5]; number of lesions): 2.0
pulmonary lesions in all available histological samples, Minimum ([5]; number of lesions): 1.0
fungicidal activity at a low concentration [6]: 0.5 microgram/mL
EC50 value (concentration resulting in 50% inhibition of growth compared to control) ([6]; non-linear regression analysis): 0.18 micrograms/mL
MIC50 ([7]; A. fumigatus clinical test isolates): 0.25 µg/mL (≈ 0.000716 mM)
minimum inhibitory concentrations for 90% of isolates (MIC90) ([7]; Aspergillus fumigatus): 0.5-1 microgram/mL
MIC90 ([7]; red line in FIG. 10): 0.52 µg/mL (≈ 0.00149 mM)
typical Tmax in human plasma [8]: 50 to 66 min
Cmax Lung ([9]; Large Mice (high flow rate, 5 L/min), single dose): 1.62 microgram/g
AUC (0-6 hr) Lung [9, 11]: 2408.0 microgram × min/g
Cmax Lung [9, 11]: 11.02 microgram/g
Kp ([9]; male, ICR, mouse, in vivo, inhaled or intranasal): 1.4 to 1.6
Tmax ([9]; male, ICR, mouse, lung, inhaled or intranasal, 6.09 microgram/mL, Tmax Lung, Small Mice (low flow rate, 1 L/min), single dose, 20 minute nebulization): ≤ 30 min
Tmax ([9]; male, ICR, mouse, lung, inhaled or intranasal, Lung Tmax, summary table): 10 to 30 min
Tmax ([9]; male, ICR, mouse, lung, inhaled or intranasal, Tmax Lung, Large Mice (high flow rate, 5 L/min), single dose, 20 minute nebulization): 10 min
Tmax ([9]; male, ICR, mouse, lung, inhaled or intranasal, Tmax Lung, Small Mice (low flow rate, 1 L/min), single dose, 20 minute nebulization): 30 min
Tmax ([9]; male, ICR, mouse, plasma (heading says blood), inhaled or intranasal, Blood Tmax, summary table): 20 to 30 min
Cmax ([9]; male, ICR, mouse, plasma, inhaled or intranasal, 6.09 microgram/mL, Cmax Plasma, Small Mice (low flow rate, 1 L/min), single dose): 7090 ng/mL
Tmax ([9]; male, ICR, mouse, plasma, inhaled or intranasal, 6.09 microgram/mL, Tmax Plasma, Small Mice (low flow rate, 1 L/min), single dose, 20 minute nebulization): ≤ 30 min
AUC(0-t) ([9]; male, ICR, mouse, plasma, inhaled or intranasal, Large Mice (high flow rate, 5 L/min), single dose): 2270 ng·h/mL
AUC(0-t) ([9]; male, ICR, mouse, plasma, inhaled or intranasal, Small Mice (low flow rate, 1 L/min), single dose): 25800 ng·h/mL
Cmax ([9]; male, ICR, mouse, plasma, inhaled or intranasal, Blood Cmax, single-dose): 7090 ng/mL
Cmax ([9]; male, ICR, mouse, plasma, inhaled or intranasal, Cmax Plasma, Large Mice (high flow rate, 5 L/min), single dose): 1180 ng/mL
Tmax ([9]; male, ICR, mouse, plasma, inhaled or intranasal, Tmax Plasma, Large Mice (high flow rate, 5 L/min), single dose, 20 minute nebulization): 20 min
Tmax ([9]; male, ICR, mouse, plasma, inhaled or intranasal, Tmax Plasma, Small Mice (low flow rate, 1 L/min), single dose, 20 minute nebulization): 30 min
Lung Cmax ([9]; single-dose, mouse): 11020 ng/mL
increase in total drug exposure as measured by AUC0-6 for lung tissue and plasma ([9]; slower flow rate (small mice) versus high flow rate (large mice)): > 10 fold
